Assay results from patent publication US10369134B2, “Nonracemic mixtures and uses thereof” (Sunovion Pharmaceuticals Inc., priority 2017, dated 2019).

Tested on: healthy subjects
Assay: REM suppression polysomnography (PSG) study of (R)-amisulpride
Assay type: in vivo
Details: human; for decrease in the time spent in REM sleep / reduction of the portion of the night spent in REM: range is 90% confidence interval
Description: REM suppression was the biomarker used to determine clinically-significant levels of 5-HT7 antagonism and its pharmacodynamics. REM suppression was assessed by total time in minutes spent in REM sleep and by the latency in minutes to REM sleep. […] REM suppression in human volunteers is an established translational biomarker useful to identify doses for antidepressant effects in patients.
The primary endpoint was REM sleep suppression as determined at post dose time points in the measures of latency to REM sleep, REM sleep time in minutes, and percent decrease in REM sleep time relative to total sleep time.
The results presented in Tables 6A-6C were determined from an analysis of the date based on a linear mixed model with terms for treatment, period, and treatment sequence as fixed effects, respective baseline PSG value as a continuous covariate, and treatment-by-baseline PSG interaction, and subject nested within sequence as a random effect, the Kenward and Roger correction for the degrees of freedom and an unstructured covariance structure to model the intrasubject correlation. The abbreviations used in Tables 6A-6C are as follows: PSG=polysomnography; CI=confidence interval; LS=least-squares; REM=rapid eye movement; SE=standard error.

With `CCN1CCC[C@@H]1CNC(=O)c1cc(S(=O)(=O)CC)c(N)cc1OC` [(R)-amisulpride, R-4-Amino-N-[(1-ethyl-2-pyrrolidinyl)methyl]-5-(ethylsulfonyl)-2-methoxybenzamide] the “decrease in REM sleep” value (340 mg (FIG. 15C)) was “about 20 minutes”, the “decrease in REM sleep” value (600 mg (FIG. 15C)) was “about 30 minutes” and the “subjects who reported adverse events” value (of the 13 subjects dosed with 600 mg) was 3 subjects. The “suppression of REM sleep” value (single dose 600 mg) was “clinically meaningful and statistically significant suppression of REM sleep”, the “vital signs and ECGs” value (single oral dose) was “normal” and the “Latency to REM Sleep, LS Mean Difference (SE) from placebo” value (single oral dose 340 mg, n=20) was 28.23 (9.82) Minutes. The “REM Percent, LS Mean Difference (SE) from placebo” value (single oral dose 340 mg, n=20) was −4.15 (1.09) %, the “REM Time, LS Mean Difference (SE) from placebo” value (single oral dose 340 mg, n=20) was −18.45 (4.91) Minutes and the “REM Percent, LS Mean (SE)” value (single oral dose 340 mg, n=20, placebo 25.69 (0.92)) was 21.55 (0.92) %. The “Latency to REM Sleep, LS Mean (SE)” value (single oral dose 340 mg, n=20, placebo 77.03 (9.42)) was 105.25 (9.42) Minutes, the “REM Time, LS Mean (SE)” value (single oral dose 340 mg, n=20, placebo 110.05 (4.69)) was 91.60 (4.69) Minutes and the “decrease in the time spent in REM sleep” value (single oral dose 340 mg) was 10 to 27 min. The “reduction of the portion of the night spent in REM” value (single oral dose 340 mg) was 2-6 percentage points, the “Latency to REM Sleep, LS Mean Difference (SE) from placebo” value (single oral dose 600 mg, n=13) was 20.30 (9.39) Minutes and the “REM Percent, LS Mean Difference (SE) from placebo” value (single oral dose 600 mg, n=13) was −6.24 (1.45) %. For the same compound, the “REM Time, LS Mean Difference (SE) from placebo” value (single oral dose 600 mg, n=13) was −31.39 (7.99) Minutes, the “REM Percent, LS Mean (SE)” value (single oral dose 600 mg, n=13, placebo 24.30 (1.14)) was 18.06 (1.14) % and the “Latency to REM Sleep, LS Mean (SE)” value (single oral dose 600 mg, n=13, placebo 89.06 (7.71)) was 109.35 (7.71) Minutes. For the same compound, the “REM Time, LS Mean (SE)” value (single oral dose 600 mg, n=13, placebo 107.98 (5.65)) was 76.59 (5.65) Minutes, the “decrease in the time spent in REM sleep” value (single oral dose 600 mg) was 18 to 45 min and the “reduction of the portion of the night spent in REM” value (single oral dose 600 mg) was 4-9 percentage points. The “tolerability” value (single oral dose 340 or 600 mg) was “well tolerated”.
